Measurements taken from publication PMC8395260, “Co-Aggregation of S100A9 with DOPA and Cyclen-Based Compounds Manifested in Amyloid Fibril Thickening without Altering Rates of Self-Assembly” (International Journal of Molecular Sciences, 2021).
Non-standard residues stand in square brackets, D forms with d. Residues, ends and D or L forms follow the SMILES beside them. Dopa = N[C@@H](Cc1ccc(O)c(O)c1)C(=O)O

Assays:
[1] = ThT incubation of individual compounds (amyloid self-assembly of the compounds); assay type: physicochemical; conditions: 75 μM compound, PBS pH7.4, 42 °C, same period as S100A9 kinetics
Description: Figure S1. Time dependence of Thioflavin-T fluorescence changes during its incubation with S100A9 and DOPA and Cyclen-based compounds. Thioflavin-T fluorescence in arbitrary units is shown along y-axis, time in minutes – along x-axis. Increase in Thioflavin-T fluorescence in the presence of 75 μM S100A9 reflects its amyloid self-assembly and shown in brown. By contrast, there were no increase in Thioflavin-T fluorescence upon incubation with 75 μM of corresponding compounds as […]
green line, for DOPA-H-H-DOPA – by orange, DOPA-D-H – by chartreuse, H-E-Cyclen – by red and […]
assembly of these compounds under the conditions of our experiments. PBS, pH7.4 and 42 °C.
(1 picture or pasted object on this page, not shown here)

S100A9 amyloid fibrils = test: AFM imaging of S100A9 fibrils, fibril height distributions; assay type: biochemical; conditions: PBS pH 7.4, 42 °C; for S100A9 fibril morphology change (AFM): molar ratio 1:1; for median height of S100A9 fibrils (AFM): molar ratio 1:10, text, S100A9 alone ca. 1.6 nm
Description: In order to complement the kinetic analysis, we also monitored the S100A9 amyloid formation by AFM imaging (Figure 3). The amyloid fibrils of S100A9 alone that developed after 100 h of incubation in PBS, pH 7.4, and 42 °C were very flexible, relatively short, i.e., within 200–600 nm length, and also characterized by a narrow distribution of the heights with a median at ca. 1.6 nm in the AFM cross-sections. In the presence of all DOPA-based compounds, the fibrils of S100A9 become thicker with median heights of ca. 2.0–2.2 nm, and generally longer (Figure 3). […] At the molar ratio of S100A9 to DOPA-based compounds of 1:10, the height of fibrils became even thicker, shifting towards 2.2–2.8 nm median height and in the case of DOPA-D-H-DOPA to 3.0–3.2 nm (Figure 3), while their lengths remained about the same as at the 1:1 molar ratio.
Figure 3 AFM imaging of S100A9 fibrils in the absence and presence of DOPA and cyclen-based compounds and the analysis of fibril height distributions. (a) Representative AFM image of S100A9 fibrils incubated alone. (b,c) Distribution of fibril heights measured in AFM cross-sections. The same distribution is shown in both columns to facilitate the comparison with the following height distributions carried out in the presence of compounds. (d,g,j,m,p) Representative AFM images of S100A9 fibrils in the presence of DOPA and cyclen-based compounds at a 1:1 molar ratio of S100A9 to compound. (e,h,k,n,q) Distributions of fibril heights measured in AFM cross-sections at the S100A9 to compound molar ratio of 1:1 and (f,i,l,o,r) at molar ratio of 1:10. Image sizes are 2.5 × 2.5 μm. The compounds and molar ratios are indicated above the figures. Samples were incubated for 50 h in PBS, pH 7.4, and 42 °C. […]
S100A9 protein was expressed in E. coli and purified as described previously. Freshly dissolved S100A9 in PBS, pH 7.4 was used in all measurements. Lyophilized S100A9 was dissolved on ice in PBS buffer at pH 7.4. Then, S100A9 samples were filtered using a 0.22 µm spin membrane filter to remove any preformed aggregates. These solutions were directly subjected to experiments. To produce amyloids, S100A9 was incubated in PBS, pH 7.4, and 42 °C. The cyclic compounds (Figure 1) were dissolved in PBS at pH 7.4, and their stock solutions were kept frozen prior to measurements.
AFM imaging was performed by using a BioScope Catalyst AFM (Bruker; Phoenix, AZ, USA), operating in a peak force mode in air. The scan rate was 0.51 Hz and the resolution was 512 × 512 pixels. Bruker MSLN and SLN cantilevers were used in all measurements. Imaging was also conducted using a PicoPlus AFM (Molecular Imaging), equipped with a 100 μm scanner, operating in tapping mode in air. The resonance frequency was set in 170 to 190 kHz range, scan rate of 1 Hz, and resolution of 512 × 512 pixels. […]

S100A9 [2] = target: T1, S100A9 (Homo sapiens, UniProt P06702); test: Titration of S100A9 with compounds followed by intrinsic fluorescence; conditions: intrinsic Trp 88 fluorescence, single binding site model, legend: 75 μM S100A9, PBS pH 7.4, 20 °C, method: 1 μM S100A9, 5 nM to 2.4 μM compound, 3 h room temperature, triplicates; for Kd: read-out: apparent dissociation constant Kd
T1 construct: made in house; host or cells: E. coli
T1 sequence (P06702 1-114): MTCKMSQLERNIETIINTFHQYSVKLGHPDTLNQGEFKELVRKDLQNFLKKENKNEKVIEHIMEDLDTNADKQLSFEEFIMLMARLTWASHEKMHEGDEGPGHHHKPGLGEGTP
Description: S100A9 was titrated by each compound of interest following the changes in intrinsic fluorescence intensity, since S100A9 has one aromatic residue: Trp 88. The fitting was performed using a single binding site model to determine the apparent dissociation constant for each compound. […] A twice larger Kd was determined only for DOPA-D-H-DOPA binding.
Figure 4 Binding of DOPA and cyclen-based compounds to native S100A9 followed by intrinsic fluorescence. (a–e) Normalized titrations of S100A9 by corresponding compounds. Each compound is indicated above corresponding figure (a–e) and their Kd in captions. Symbols indicate the experimental data points and lines the fitting with a single binding site model. 75 μM S100A9, PBS, pH 7.4, and 20 °C.
First, 1 μM S100A9 was incubated in PBS, pH 7.4, room temperature for 3 h in the absence or presence of 5 nM to 2.4 μM of the studied compounds prior to fluorescence measurements. The final volume was kept at 400 μL for all samples. The fluorescence emission spectra were recorded using a Jasco spectrofluorometer FP 6500 (Japan), setting the excitation at 296 nm and emission at 350 nm wavelengths, respectively, with a 3 nm band-width on both the excitation and emission. The measurements were performed in triplicates. Fitting of the normalized titration curves was performed by using a single site binding model.

S100A9 [3] = target: T1, S100A9; test: ThT fluorescence kinetics of S100A9 amyloid formation in the presence of compounds; assay type: biochemical; conditions: for k, kinetic rate constant of S100A9 amyloid formation: 75 μM S100A9, 20 µM ThT, PBS pH 7.4, 42 °C, isodesmic polymerization fit, triplicate; for k/kS100A9: 75 μM S100A9, PBS pH 7.4, 42 °C
Source text: The amyloid formation of S100A9 in the absence and presence of DOPA and cyclen-based compounds was monitored by ThT fluorescence and is presented in Figure 2. The amyloid formation correlates with the increase of the ThT fluorescence, and the initial parts of the fibrillation kinetic curves were fitted by using an isodesmic polymerization model to derive the kinetic rates; this model has previously been used in kinetic analysis of S100A9 amyloid self-assembly.
Figure 2 Kinetics of S100A9 amyloid formation in the absence and presence of DOPA and cyclen-based compounds monitored by ThT fluorescence. (a) Amyloid kinetics monitored at the ratio of S100A9 to corresponding compound of 1:1 and (b) 1:10, respectively. Symbols indicating the experimental data points for S100A9 alone or with respective compounds are shown in the caption and the corresponding lines indicate the fitting with the isodesmic polymerization model. The equation for isodesmic polymerization fitting is shown in ((b) inset). 75 μM S100A9, PBS, pH 7.4, and 42 °C.
ThT dye is known to bind specifically to β-sheet-containing amyloid structures and thus enables quantification of the kinetics of amyloid self-assembly. ThT assay was performed as described previously. First, 75 μM S100A9 was transferred into Nunc 96U black well plates with transparent bottoms and then 20 µM ThT was added to each well. The compounds dissolved in PBS were added to S100A9 solution with molar ratios of 1:1 and 1:10, respectively. Sample volumes were kept at 200 μL per well. The plates were immediately covered, placed into a Tecan F200 PRO plate reader, and incubated at 42 °C with 432 rpm orbital shaking every 10 min. ThT fluorescence was recorded every 10 min. Filters at 430 and 495 nm wavelengths with a 20 nm band width each were used for excitation and emission, respectively. Each sample was incubated in triplicate. ThT fluorescence intensities were normalized.

Kd (S100A9 [2])	SMILES	ThT fluorescence upon incubation of compound alone (amyloid self-assembly) [1]	S100A9 fibril morphology change (AFM) (S100A9 amyloid fibrils)	median height of S100A9 fibrils (AFM) (S100A9 amyloid fibrils)	apparent dissociation constant Kd (S100A9 [2])	k, kinetic rate constant of S100A9 amyloid formation (S100A9 [3]; S100A9:compound 1:1)	k/kS100A9 (S100A9 [3]; S100A9:compound 1:1)	k, kinetic rate constant of S100A9 amyloid formation (S100A9 [3]; S100A9:compound 1:10)	k/kS100A9 (S100A9 [3]; S100A9:compound 1:10)
	N[C@@H](Cc1ccc(O)c(O)c1)C(=O)N[C@@H](CC(=O)O)C(=O)N[C@@H](Cc1c[nH]cn1)C(=O)N[C@@H](Cc1ccc(O)c(O)c1)C(=O)O [DOPA-D-H-DOPA] (H-[Dopa]DH[Dopa]-OH)	flat lines close to zero	tended to clump together, forming large clustered aggregates	3.0–3.2 nm	sub-micromolar range	60000 M⁻¹ s⁻¹	0.91	66000 M⁻¹ s⁻¹	1
	N[C@@H](Cc1ccc(O)c(O)c1)C(=O)N[C@@H](Cc1c[nH]cn1)C(=O)N[C@@H](Cc1c[nH]cn1)C(=O)N[C@@H](Cc1ccc(O)c(O)c1)C(=O)O [DOPA-H-H-DOPA] (H-[Dopa]HH[Dopa]-OH)	flat lines close to zero			sub-micromolar range	77000 M⁻¹ s⁻¹	1.17	134000 M⁻¹ s⁻¹	
0.1 ± 0.04 µM	O=C(CN1CCNCCNCCNCC1)N[C@@H](Cc1ccc(O)c(O)c1)C(=O)O [DOPA-cyclen]	flat lines close to zero			sub-micromolar range	62000 M⁻¹ s⁻¹	0.93	133000 M⁻¹ s⁻¹	
0.09 ± 0.05 µM	O=C(O)CC[C@H](NC(=O)CN1CCNCCNCCNCC1)C(=O)N[C@@H](Cc1c[nH]cn1)C(=O)O [H-E-cyclen]	flat lines close to zero	did not lead to thickening of amyloid fibrils	2.0 nm	sub-micromolar range	69000 M⁻¹ s⁻¹	1.05	48000 M⁻¹ s⁻¹	0.72

SMILES	Kd (S100A9 [2])	ThT fluorescence upon incubation of compound alone (amyloid self-assembly) [1]	S100A9 fibril morphology change (AFM) (S100A9 amyloid fibrils)	median height of S100A9 fibrils (AFM) (S100A9 amyloid fibrils)	apparent dissociation constant Kd (S100A9 [2])	k, kinetic rate constant of S100A9 amyloid formation (S100A9 [3]; S100A9:compound 1:1)	k/kS100A9 (S100A9 [3]; S100A9:compound 1:1)	k, kinetic rate constant of S100A9 amyloid formation (S100A9 [3]; S100A9:compound 1:10)	k/kS100A9 (S100A9 [3]; S100A9:compound 1:10)
N[C@@H](Cc1ccc(O)c(O)c1)C(=O)N[C@@H](CC(=O)O)C(=O)N[C@@H](Cc1c[nH]cn1)C(=O)O [DOPA-D-H] (H-[Dopa]-Asp-His-OH)	0.11 ± 0.04 µM	flat lines close to zero	tended to clump together, forming large clustered aggregates		sub-micromolar range	63000 M⁻¹ s⁻¹	0.95	45000 M⁻¹ s⁻¹	0.69
